For one compound, Activity results are on record in ChEMBL document CHEMBL6103622 (J Med Chem, 2025).

The source made the active and inactive calls. The calls are words filed in the database; no cut-off is given here.

Test [1] relates to BMDM. Kind of test: Induction of repolarization of M2 like macrophage into M1 phenotype in female C57BL/6 mouse BMDM cells assessed as increase in Tnf mRNA expression at 10 to 100 nM stimulated with mouse IL4/IL-13 for 24 hrs followed by compound addition and measured after 24 hrs by qPCR analysis. The test is classed as functional, cell-based. The following applies: dose 10-100 nM.

Test [2] concerns MC-38. Kind of test: Induction of apoptosis in mouse MC38 cells assessed as late apoptotic cells at 30 nM by Annexin V/PI staining based flow cytometric analysis (reference value: 0.85 %). The test is classed as functional. A general note: A flow cytometer gives signals particle by particle.
Test [3] relates to MC-38. Kind of test: Induction of apoptosis in mouse MC38 cells cocultured with condition medium of M2 macrophages assessed as late apoptotic cells at 10 nM by Annexin V/PI staining based flow cytometric analysis (reference value: 1.66 %). In kind it is functional.

`Cc1nc(NC(=O)N[C@@H]2CCCC[C@H]2O)ccc1Oc1c[nH]c2ncc(Cl)cc12`: the result in test [1] was Active. The values for the Activity in test [2] and in test [3] were 0.87% and 3.25%, respectively.
